Holding throughout (format): cell-based
Test [1] relates to MRSA2 (methicillin-resistant Staphylococcus aureus clinical isolate). The test can be described thus: Broth microdilution MIC (NCCLS 2000), strain MRSA2. As to conditions: 18 h. Here is the method: (§1) Antimicrobial susceptibility testing was performed by broth assay followed standard laboratory procedures (the National Committee for Clinical Laboratory Standards (NCCLS) protocol 2000). The MIC in this assay was defined as the lowest concentration of the antibiotic under test that inhibited the visible growth of the microorganism under study.
(§2) There were eight strains of Staphylococcus aureus tested. All were from clinical isolates as they represent strains actually present in the community and so of clinical relevance. Three strains were sensitive to methicillin (MSSA), and five strains were resistant to methicillin (MRSA).
(§3) The MIC for each of the eight strains was determined for penicillin G and for vancomycin using dilutions made from the stock preparations purchased (both from Sigma). […]
(§4) The antimicrobial susceptibility test was performed in a 96-well microtitre plate and following standard National Committee for Clinical Laboratory Standards (NCCLS) protocol (NCCLS, 2000). […] Minimal inhibitory concentration (MIC) was determined by the microdilution method in Mueller-Hinton broth (Oxoid, Hampshire, UK), according to the standards of the NCCLS (2000). […]
(§5) Each bacterial strain was plated overnight on Mueller-Hinton agar and then transferred to a broth 3 hours before the assay was performed. […] Microplates were examined 18 hours later and determined for MIC. […]

For test [2], the system named is MSSA1 (methicillin-sensitive Staphylococcus aureus clinical isolate). The test can be described thus: Broth microdilution MIC (NCCLS 2000), strain MSSA1. As to conditions: 18 h. As to the method: as §1, §2, §3, §4, §5
For orientation: In broth dilution the organism is exposed to a series of concentrations in liquid medium.

The subject of test [3] is MRSA3 (methicillin-resistant Staphylococcus aureus clinical isolate). Briefly: Broth microdilution MIC (NCCLS 2000), strain MRSA3. Conditions: 18 h. As to the method:
as §1, §2, §3, §4, §5

The subject of test [4] is MSSA2 (methicillin-sensitive Staphylococcus aureus clinical isolate). Briefly: Broth microdilution MIC (NCCLS 2000), strain MSSA2. Conditions: 18 h. As to the method:
as §1, §2, §3, §4, §5

In test [5] the test system is MSSA3 (methicillin-sensitive Staphylococcus aureus clinical isolate). The test can be described thus: Broth microdilution MIC (NCCLS 2000), strain MSSA3. As to conditions: 18 h. As to the method: as §1, §2, §3, §4, §5
The subject of test [6] is MRSA4 (methicillin-resistant Staphylococcus aureus clinical isolate). The test can be described thus: Broth microdilution MIC (NCCLS 2000), strain MRSA4. As to conditions: 18 h. Here is the method:
as §1, §2, §3, §4, §5

Test [7] concerns eight strains of Staphylococcus aureus (MSSA and MRSA clinical isolates). Briefly: Broth microdilution MIC (NCCLS 2000), summary over all tested strains. Conditions: read-out: MIC concentrations of the different strains. As to the method:
as §1, §2, §3, §4, §5

Test [8] concerns MRSA5 (methicillin-resistant Staphylococcus aureus clinical isolate). Briefly: Broth microdilution MIC (NCCLS 2000), strain MRSA5. As to conditions: 18 h. Here is the method:
as §1, §2, §3, §4, §5

Test [9] relates to MRSA1 (methicillin-resistant Staphylococcus aureus clinical isolate). Briefly: Broth microdilution MIC (NCCLS 2000), strain MRSA1. Conditions: 18 h. As to the method:
as §1, §2, §3, §4, §5

Each structure is given as a SMILES string. Read-outs that look alike come from different tables or passages of the source.

Regarding `CC1(C)S[C@@H]2[C@H](NC(=O)Cc3ccccc3)C(=O)N2[C@H]1C(=O)O` [Pen, penicillin G], the MIC in test [1] (strain MRSA2, extract where present 1% w/v final, 37° C., Mueller-Hinton broth, read-out: MIC) was found to be 256 µg/mL; in [2] (strain MSSA1, extract where present 1% w/v final, 37° C., Mueller-Hinton broth, read-out: MIC), 64 µg/mL; in [3] (strain MRSA3, extract where present 1% w/v final, 37° C., Mueller-Hinton broth, read-out: MIC) it was 1020 µg/mL; in test [4] (strain MSSA2, extract where present 1% w/v final, 37° C., Mueller-Hinton broth, read-out: MIC), 32 µg/mL; in test [5] (strain MSSA3, extract where present 1% w/v final, 37° C., Mueller-Hinton broth, read-out: MIC), 8 µg/mL; in test [6] (strain MRSA4, extract where present 1% w/v final, 37° C., Mueller-Hinton broth, read-out: MIC), 256 µg/mL. The MIC in test [7] (antibiotic alone, range over the eight MSSA and MRSA strains) was 8 to 1020 µg/mL; in test [8] (strain MRSA5, extract where present 1% w/v final, 37° C., Mueller-Hinton broth, read-out: MIC), 512 µg/mL; in test [9] (strain MRSA1, extract where present 1% w/v final, 37° C., Mueller-Hinton broth, read-out: MIC), 512 µg/mL.

Turning to `CN[C@H](CC(C)C)C(=O)N[C@H]1C(=O)N[C@@H](CC(N)=O)C(=O)N[C@H]2C(=O)N[C@H]3C(=O)N[C@H](C(=O)N[C@H](C(=O)O)c4cc(O)cc(O)c4-c4cc3ccc4O)[C@H](O)c3ccc(c(Cl)c3)Oc3cc2cc(c3O[C@@H]2O[C@H](CO)[C@@H](O)[C@H](O)[C@H]2O[C@H]2C[C@](C)(N)[C@H](O)[C@H](C)O2)Oc2ccc(cc2Cl)[C@H]1O` [Van, vancomycin], the MIC in test [1] is 1 µg/mL; in test [2], 0.5 µg/mL; in test [3], 1 µg/mL; in [4] it was 0.5 µg/mL; in [5] it was 0.5 µg/mL; in test [6] it was 0.5 µg/mL. Moreover, the MIC was 0.5 to 1 µg/mL in [7], 0.5 µg/mL in [8] and 0.5 µg/mL in test [9].
